# Measured values published in US20100112012A1, “MODULATION OF IMMUNE RESPONSES” (CLEVELAND CLINIC FOUNDATION, priority 2005, published 2010).
# Entries after “also recorded” stand apart in the source; their conditions may differ.
# Tested on: p53
# Experiment: p53 reporter in organ cultures of human RCC tumor samples
# Format: cell-based
# Conditions: 12 hours
# Protocol: FIG. 11. QC can activate p53 transactivation in organ cultures of human RCC tumor samples. Fresh surgically removed samples of tumor and adjacent normal kidney were cut into small pieces and put into media containing ConALacZ virus (5×10^7 TU/ml) with […] of polybrene for 4 hours. 24 hours after infection, tissue pieces (at least three per treatment) were incubated with media containing quinacrine or doxorubicin for 12 hours. Then the tissues were fixed for 30 min in PBS containing 0.5% glutaraldehyde and 1 mM MgCl2. Pieces of tumor were stained in PBS solution containing X-gal (1 mM MgCl2, 3.3 mM K4Fe(CN)6, 3.3 mM K3Fe(CN)6, 0.02% NP40, 0.2% X-gal) overnight at 37° C. Stained specimens were analyzed microscopically by squeezing pieces of tumor and normal tissues between two glass slides.
smiles,measurement,setting,value
"CCN(CC)CCCC(C)Nc1c2ccc(Cl)cc2nc2ccc(OC)cc12 (centres unmarked) [QC, quinacrine]",p53-responsive reporter induction in normal kidney samples,organ cultures of adjacent normal kidney,no reporter induction
same,expression of a p53-responsive reporter in tumor samples,organ cultures of human RCC,can be also detected in short-term organ cultures; also recorded: induced expression of a p53-responsive reporter in tumor samples
